ChEMBL document CHEMBL1649094, “First Selective CYP11B1 Inhibitors for the Treatment of Cortisol-Dependent Diseases” (ACS Med Chem Lett, 2011)
pIC50: −log10 of the molar value.

Columns and labels:
[1] = biological target: T1, Cytochrome P450 11B1, mitochondrial (Homo sapiens, UniProt P15538); assay: Inhibition of human CYP11B1 expressed in hamster V79MZ cells using 11-deoxycorticosterone substrate; assay type: cell-based
T1 sequence (P15538 whole entry): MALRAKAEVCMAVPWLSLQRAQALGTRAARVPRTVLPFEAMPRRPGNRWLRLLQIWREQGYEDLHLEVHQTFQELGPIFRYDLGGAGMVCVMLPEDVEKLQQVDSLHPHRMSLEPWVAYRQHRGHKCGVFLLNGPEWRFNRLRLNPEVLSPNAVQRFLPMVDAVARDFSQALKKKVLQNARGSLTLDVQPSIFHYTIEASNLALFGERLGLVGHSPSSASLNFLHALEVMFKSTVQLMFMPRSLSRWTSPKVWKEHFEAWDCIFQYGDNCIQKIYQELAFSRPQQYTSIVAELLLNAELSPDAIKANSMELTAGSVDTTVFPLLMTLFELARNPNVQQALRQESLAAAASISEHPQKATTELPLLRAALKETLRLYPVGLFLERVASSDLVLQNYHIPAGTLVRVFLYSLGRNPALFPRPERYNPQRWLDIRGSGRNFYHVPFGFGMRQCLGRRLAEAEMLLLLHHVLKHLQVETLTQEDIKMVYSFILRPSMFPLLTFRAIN

[2] = species: Homo sapiens; assay: Selectivity index, ratio of IC50 for human CYP11B2 to IC50 for human CYP11B1
[3] = biological target: T2, CYP19 (aromatase) (Homo sapiens, UniProt P11511); assay: Inhibition of human placental microsomes CYP19 at 500 nM using androstenedione substrate; conditions: human placental microsomes, probe androstenedione
T2 sequence (P11511 whole entry): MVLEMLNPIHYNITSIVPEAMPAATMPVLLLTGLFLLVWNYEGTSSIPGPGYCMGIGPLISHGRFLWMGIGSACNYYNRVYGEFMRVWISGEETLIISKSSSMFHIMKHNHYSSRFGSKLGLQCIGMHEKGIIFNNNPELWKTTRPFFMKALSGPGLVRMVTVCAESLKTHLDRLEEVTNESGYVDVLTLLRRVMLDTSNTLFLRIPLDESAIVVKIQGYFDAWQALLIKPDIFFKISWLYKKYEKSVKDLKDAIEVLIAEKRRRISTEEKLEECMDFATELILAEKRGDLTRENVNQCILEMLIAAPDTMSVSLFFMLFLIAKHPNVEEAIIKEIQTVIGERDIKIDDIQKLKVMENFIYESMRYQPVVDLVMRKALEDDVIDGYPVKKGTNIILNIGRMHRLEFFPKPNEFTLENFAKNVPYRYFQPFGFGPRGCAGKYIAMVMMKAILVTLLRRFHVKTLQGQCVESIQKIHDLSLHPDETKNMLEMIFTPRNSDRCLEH

[4] = biological target: T3, Cytochrome P450 11B2, mitochondrial (Homo sapiens, UniProt P19099); assay: Inhibition of human CYP11B2 expressed in hamster V79MZ cells using 11-deoxycorticosterone substrate; assay type: cell-based
T3 sequence (P19099 whole entry): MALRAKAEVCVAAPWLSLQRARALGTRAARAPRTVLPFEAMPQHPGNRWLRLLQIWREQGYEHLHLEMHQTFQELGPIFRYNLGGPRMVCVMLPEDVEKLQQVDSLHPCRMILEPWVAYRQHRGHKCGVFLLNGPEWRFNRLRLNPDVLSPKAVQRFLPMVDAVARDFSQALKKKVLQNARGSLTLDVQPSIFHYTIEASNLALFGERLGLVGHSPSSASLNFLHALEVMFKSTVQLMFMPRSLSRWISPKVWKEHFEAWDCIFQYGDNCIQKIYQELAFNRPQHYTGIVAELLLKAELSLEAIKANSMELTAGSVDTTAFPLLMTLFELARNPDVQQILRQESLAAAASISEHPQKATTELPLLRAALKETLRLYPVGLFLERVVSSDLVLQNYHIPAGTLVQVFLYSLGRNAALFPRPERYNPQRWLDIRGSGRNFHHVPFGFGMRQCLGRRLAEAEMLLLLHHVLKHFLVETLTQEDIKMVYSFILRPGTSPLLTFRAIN

[5] = biological target: T4, CYP17 (Homo sapiens, UniProt P05093); assay: Inhibition of human recombinant CYP17 expressed in Escherichia coli at 2 uM using progesterone substrate; conditions: recombinant human CYP17 expressed in Escherichia coli, probe progesterone
T4 sequence (P05093 whole entry): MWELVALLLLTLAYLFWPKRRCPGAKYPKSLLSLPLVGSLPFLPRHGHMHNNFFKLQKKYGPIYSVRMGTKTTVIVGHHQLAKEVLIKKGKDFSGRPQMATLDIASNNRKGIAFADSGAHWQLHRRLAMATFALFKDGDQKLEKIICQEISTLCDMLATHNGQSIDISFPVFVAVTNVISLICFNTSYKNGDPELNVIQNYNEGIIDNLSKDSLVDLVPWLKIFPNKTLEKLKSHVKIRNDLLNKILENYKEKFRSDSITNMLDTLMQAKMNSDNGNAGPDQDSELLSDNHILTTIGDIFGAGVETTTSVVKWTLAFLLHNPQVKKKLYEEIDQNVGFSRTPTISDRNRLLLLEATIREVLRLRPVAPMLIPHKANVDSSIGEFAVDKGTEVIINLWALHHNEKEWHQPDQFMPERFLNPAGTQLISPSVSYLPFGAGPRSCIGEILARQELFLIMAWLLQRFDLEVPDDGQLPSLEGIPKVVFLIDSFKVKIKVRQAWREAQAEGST

pIC50 [1]	Ratio IC50 [2]	inhibition at 0.5 µM [3]	pIC50 [4]	inhibition at 2 µM [5]	Structure (SMILES)
7.37	8.2	12%	6.45	21%	c1ccc(-c2ccc(Cn3ccnc3)s2)cc1
7.34	8.1	38%	6.43	0%	c1ccc(-c2ccc(Cn3ccnc3)o2)cc1
